Data from patent publication US10098581B2, “Integrated electrical profiling system for measuring leukocytes activation from whole blood” (Massachusetts Institute of Technology, priority 2014, dated 2018).

Tests used:
Type in all cases: cell-based
human granulocytes [1] = test: IDS mechanism study of neutrophil activation with chemical inhibitors; details: 10 MHz; 0.5 μM fMLP, 2 μM PMA; 20 minutes stimulation
Description: This experiment focuses on the mechanism study of electrical changes during neutrophil activation. The mechanism study aims to help understand which aspect of neutrophil activation iso-dielectric separation is sensitive to. Different inhibitors were added to reduce the effect of membrane ruffling, reactive oxygen species (ROS) generation, and degranulation before activation to decouple the effect of the three factors. FIG. 19 is a schematic diagram illustrating aspects of activation of a neutrophil in response to a stimulus. In membrane ruffling, volume changes occur with advanced activation. Membrane roughness can increase the membrane capacitance. In Reactive Oxygen Species (ROS) generation, cytoplasm conductivity increases. NADPH oxidase is a major cause of the ROS generation. Degranulation occurs during phagocytosis, and lowers cytoplasmic ionic content. The experiment uses chemical inhibitors to block specific aspects of activation to determine the dominant causes of electrical changes. FIG. 20A is a summary of the procedure. Human granulocytes are first isolated from whole blood with a density gradient method, and then were split into six aliquots for different treatment. CytB, CytB+Jasp, CytB+DPI were added for inhibiting membrane ruffling, membrane ruffling and degranulation, membrane ruffling and ROS generation, respectively. The inhibition treatment lasted for ten minutes. […]

human granulocytes [2] = test: Flow cytometry and functional assays of PMA-activated granulocytes; details: different doses of PMA
Description: 10 ml samples of heparinized human blood were obtained from healthy donors (Blood Research Components, LLC). Two aliquots of 5 ml of blood were set in 3 ml of Mono-Poly Resolving Medium (MP Biosciences) and the samples were spun in a free hanging centrifuge at 400 cfg for 40 min. The resulting layered samples contained a band of granulocytes that were recovered and triple washed with a PBS solution. Finally, the cells were resuspended in a PBS solution (PBS, 1% BSA, 1 u Heparin).
(§1) Human granulocytes were activated with different concentrations of PMA (Phorbol 12-Myristate 13-Acetate, Sigma Aldrich) in a PBS solution with Mg^++ and Ca^++. To activate the cells, a 1:1 solution of suspended cells was mixed with PMA buffer and the resulting suspension was incubated for 20 min at room temperature.
Flow cytometry (FC) was performed with a BD Accuri (Becton Dickinson) flow cytometer with a 488 nm and a 670 nm emitter. Granulocytes were gated based on side and forward scatter and stained with anti-human CD11b-PE, anti-human CD66b-PerCP-CY5.5 and anti-human CD18-FITC (Becton Dickinson) as activation indicators. Mouse samples were stained using anti-mouse CD-18 and anti-mouse Ly6G as an activation marker.
The first goal was to confirm that IDS is able to discern IDP differences in activated and non-activated human granulocytes extracted from freshly collected blood. […]

neutrophils = test: IDP evolution of PMA-treated neutrophils over treatment time; details: normalized IDP vs PMA treatment time in minutes (FIG. 16B)
Text: In another embodiment according to the invention, isodielectric position dynamics can be used to assist with diagnostics. In particular, activation of leukocytes can be tracked with DCFH-DA oxidation. FIG. 16A is a graph of respiratory burst (DCFH-DA oxidation), showing DCF median intensity on the vertical axis, versus PMA (Phorbol 12-Myristate 13-Acetate, Sigma Aldrich) treatment time in minutes (horizontal axis), at different concentrations of PMA. FIG. 16B is a graph of iso-dielectric point (IDP) evolution of PMA-treated neutrophils, showing normalized IDP on the vertical axis versus PMA treatment time in minutes on the horizontal axis.

human granulocytes [3] = test: Single-sided iso-dielectric separation (IDS): IDP distributions of PMA-treated vs non-treated granulocytes
Text: In IDS, a heterogeneous population of cells suspended in high conductivity media was loaded into a microfluidic chip. Other inlets containing intermediate and low conductivity media provided a parallel laminar co-flow. This configuration generated a conductivity gradient perpendicular to the main microfluidic channel flow. The channel also had slanted planar electrodes patterned at the bottom (single-sided IDS) or top and bottom (double-sided IDS). An AC electric field applied to the electrodes generated a DEP barrier that guided the cells across the conductivity gradient. Cells escaped the DEP barrier at their isodielectric position (IDP), which is the position where they are at dielectric equilibrium with the surrounding medium. Cells with different effective permittivity (or effective conductivity) escaped at a different IDP resulting in a transverse spatial distribution of cells. A CCD camera near the end of the channel took videos of the cells. Finally, image-processing software detected these cells and computed the resulting IDP distribution (see FIGS. 4a-4d).
To determine the IDP different populations, suspensions (2×10^6 cells/ml) in PBS buffer with a conductivity of 1.2 S/m (PBS, 1% BSA, 1 u Heparin) were used. For the intermediate and low conductivity media, this buffer was mixed with an isotonic sucrose solution to achieve an intermediate conductivity of 0.8 S/m and a low conductivity of 0.4 S/m.
A function generator (Agilent 33220A) and an amplifier applied a 10 Vpp AC field with the same amplitude across all frequencies. A CCD camera at the end of the main channel imaged fluorescently labeled cells flowing across the field of view. An image detection script analyzed the videos to detect cells in each frame and determine the centroid of each cell. The same script generated cell position distributions that correspond to the resulting IDP distribution.
as §1
Using a single-sided IDS platform, the IDP distributions of granulocytes treated with 1 μM PMA and a control population of non-treated granulocytes were examined. A 10 Vpp AC voltage was applied to the electrodes with frequencies ranging from 0.5 MHz to 15 MHz. Cells were loaded at 0.4 μl/min and the intermediate and low conductivity buffer at 0.55 μl/min (1.5 μl/min total). To determine the IDP distributions for each frequency, the IDP distributions of at least 1000 cells were recorded, which required an acquisition of about 1.5 min. […]

| SMILES | IDP shift of stimulated granulocytes (indicating activation) (human granulocytes [1]) | levels of reactive oxygen species (human granulocytes [2]) | CD11b and CD18 expression (human granulocytes [2]; 20 min at room temperature) | IDP of treated neutrophils versus treatment time (neutrophils) | IDP distribution of treated granulocytes vs non-treated control (human granulocytes [3]; 1 μM PMA, as frequency increases (0.5-15 MHz), 10 Vpp) | peak ROC area-under-the-curve (AUC), IDP as classification threshold (human granulocytes [3]; 1 μM PMA, frequencies 10-15 MHz) | activation state of neutrophils (IDP profiling) (human granulocytes [3]; 1000 nM PMA) | ROC area under the curve, IDP as classification criteria (human granulocytes [3]; PMA treated vs control, above 5 MHz) |
| --- | --- | --- | --- | --- | --- | --- | --- | --- |
| CSCC[C@H](NC=O)C(=O)N[C@@H](CC(C)C)C(=O)N[C@@H](Cc1ccccc1)C(=O)O [fMLP, N-Formylmethionyl-leucyl-phenylalanine] | shifted to the left | – | – | – | – | – | – | – |
| CCCCCCCCCCCCCC(=O)O[C@@H]1[C@@H](C)[C@@]2(O)[C@@H](C=C(CO)C[C@]3(O)C(=O)C(C)=C[C@@H]23)[C@@H]2C(C)(C)[C@]12OC(C)=O [PMA, Phorbol 12-Myristate 13-Acetate] | shifted to the left | increased | increased | changes over time | displaced towards higher IDP | 0.62 | activated | > 0.6 |
